Experimental data taken from US11834698B2, “Process for determining enzyme activity in a cell by activity-based reporter gene technology (ABRGT)” (INDIAN INSTITUTE OF SCIENCE EDUCATION AND RESEARCH, priority 2018, dated 2023).
Peptide text beside a SMILES is read from it. * marks the point of attachment. Cbz = O=C(OCc1ccccc1)*; CH2F = FC*

Biological target: T1, caspase-9 GFPspark (Homo sapiens, UniProt P55211)
T1 construct: host or cells: MCF-7, HEK-293
T1 sequence (P55211 1-416): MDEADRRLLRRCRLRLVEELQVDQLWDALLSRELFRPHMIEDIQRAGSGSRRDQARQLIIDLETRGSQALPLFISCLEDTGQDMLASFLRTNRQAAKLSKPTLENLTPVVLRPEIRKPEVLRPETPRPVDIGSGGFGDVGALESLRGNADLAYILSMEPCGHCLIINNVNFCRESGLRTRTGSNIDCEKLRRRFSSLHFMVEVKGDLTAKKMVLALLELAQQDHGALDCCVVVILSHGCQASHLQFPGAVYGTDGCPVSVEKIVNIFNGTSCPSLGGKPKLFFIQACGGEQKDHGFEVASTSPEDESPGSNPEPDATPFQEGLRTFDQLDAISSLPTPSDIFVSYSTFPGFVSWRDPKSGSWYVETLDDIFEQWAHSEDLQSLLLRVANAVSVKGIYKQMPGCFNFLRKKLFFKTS
Experiment: AbRGT FRET imaging / acceptor photobleaching, caspase-9 GFPspark in HEK-293 cells
Assay type: cell-based
Experimental: FIGS. 17A and 17B depict specific detection of caspase-9 GFPspark in HEK-293 cells. Casp-9 GFPspark (1 μg) transfected HEK-293 cells were treated with STS (1 μM) for 4 h and labelled with the probe 1 (1 μM) for 2 h. […] The acceptor photobleaching was performed to confirm the FRET signal as described previously. The bar graph representing the rise in GFP intensity in ROI after rhodamine photobleaching was 75 a.u. as compared to the unbleached background, i.e., 10 a.u. FRET efficiency was calculated to be 35±2%.
Plasmids and transient transfection: GFPspark tagged plasmids; caspase-3 GFPspark tag (Cat: HG10050-ACG), caspase-7 GFPspark tag (HG10049-ACG), caspase-8 GFPspark (HG10078-ACG), caspase-9 GFPspark (HG11151-ACG) and cathepsin B GFPspark (HG10483-ACG) were procured from Sino Biological. For transfection, cells were seeded in a 6-well plate at a density of 0.4 million cells/well. […] 24 h post-transfection, cells were visualized under the GFP filter for GFPspark expression under fluorescence microscope at 10× magnification.
Labelling of active caspases in apoptotic cells with FABP: After 24 h of transfection, cells were treated with STS (1 μM) drug or TRAIL (1 μg/ml) for apoptotic induction and incubated for 2, 4, 6 and 8 h at 37° C. in a humidified atmosphere of 5% CO2/95% air. […] Slides were then imaged for GFP, FRET and rhodamine fluorescence signals under confocal microscopy. […]
Fluorescence imaging studies, FRET procedure: Images were collected on Zeiss LSM710 confocal microscope with 25 mW argon laser using Zen10 software. […] Images were collected in the three channels; GFP channel, argon laser tuned at 488 nm with 2% laser intensity and fluorescence emission was collected in emission range of 490-550 nm; rhodamine channel, argon laser tuned to 561 nm laser with 2% laser intensity and fluorescence emission was collected in range 550-650 nm and FRET channel with excitation laser of GFPSPARK channel and emission range of rhodamine channel. […]

[1] = HEK-293, STS 1 μM 4 h, probe 1 μM 2 h

effect of inhibitor on FRET signal (HEK-293, inhibitor 50 μM pre-treatment, STS 4 h) | Molecule | calculated FRET efficiency [1] | rise in GFP intensity in ROI after rhodamine photobleaching [1]
abolished | COC(=O)C[C@H](NC(=O)[C@H](C)NC(=O)[C@@H](NC(=O)OCc1ccccc1)C(C)C)C(=O)CF [Z-VAD-FMK] (Cbz-Val-Ala-Asp(OMe)-CH2F) | – | –
– | Rhodamine-VAD-fluoromethyl ketone [probe 1] | 35±2% | 75 a.u.
